# According to US20050008640A1, “Method of treating transplant rejection” (priority 2003, published 2005):
# Legend:
# IgG2a alloantibody = experiment: Alloantibody measurement, IgG2a; type: in vivo, C57BL/6 mice; conditions: serum 21 days after cardiac allograft; dose not stated
# Procedure: (§1) All sera were heat inactivated at 56° C. for 30 minutes and stored at −20° C. prior to analysis. BALB/c T cells were purified from spleen using MACS CD90 (Thy1.2) beads (Miltenyi Biotech, Auburn, Calif.). Briefly, 10^7 cells were resuspended in buffer containing 10 mg/ml of human IgG (Sigma, St. Louis, Mo.). […] The bead/cell mixture was then incubated for 15 minutes at 6-12° C., washed, and resuspended in 500 μl PharMingenStain Buffer (PharMingen , San Diego, Calif.) per 10^8 cells and run through an LS+ selection column. The isolated T cell suspension was adjusted to a concentration of 1×10^6 cells/ml. For flow cytometric analysis BALB/c T cells were incubated with recipient sera (1:50 for IgG2a analysis, 1:40 for IgG1 analysis). Following a 30 minute incubation at 4° C., the cells were washed and resuspended in either goat anti-mouse IgG1-phycoerythrin (PE) or anti-mouse IgG2a-PE antibody (Caltag, Burlingame, Calif.). Cells were analyzed using a Becton Dickinson FACScan (Mountain View, Calif.). Data are presented as mean and SEM of fluorescence intensity corrected for control (naive serum) fluorescence. Statistical analysis was performed using a two-tailed Student's t-test.
# C57BL/6 mice = experiment: Delayed type hypersensitivity (DTH), mBSA footpad challenge; type: in vivo
# Procedure: A modification of a method described by Magram, J., Turek, C. W., Killeen, N; Immunity, 4: 471, 1996 and Magram, J., Sfarra, J., Connaughton, S., et al; Ann. NY Acad. Sci., 795: 60-70, 1996 was used. On day 0 C57BL/6 mice were immunized intradermal (i.d.) with 400 μg methylated bovine serum albumin (mBSA) (Sigma Chemical Co., St. Louis, Mo.) in a 1:1 emulsion with complete Freund's adjuvant (Difco Labs, Detroit, Mich.). […] On day 7 post immunization mice were challenged in one hind footpad with 100 μg of mBSA in 20 μl of PBS and in the opposite footpad with PBS alone. Footpad swelling was measured 24 hours after challenge using a vernier caliper.
# anti-CD3 induced IL-2 = experiment: Anti-CD3 induced IL-2 production; type: in vivo, BALB/c mice; conditions: 12.5 mg/kg p.o.
# Procedure: Six to 8 week old BALB/c mice were dosed p.o. with EXAMPLE 3 30 minutes prior to i.v. injection of 75 ng hamster anti-mouse CD3 antibody, 145-2C11 (PharMingen, San Diego, Calif.). Two hours after anti-CD3 injection mice were bled via cardiac puncture, serum was collected and assayed for IL-2 by ELISA (Endogen, Woburn, Mass.).
# [1] = tested on: BALB/c skin allograft in C57BL/6 recipient mice; experiment: Skin transplantation; type: in vivo, C57BL/6 mice; conditions: q.d. day -1 to day 9
# Excerpt: Skin transplantation was done using a modification of a previously described method Chang, A. E. & Sugarbaker, P. H; Transplantation, 29: 381, 1980 and Sugarbaker, P. H. & Chang, A; J. Immunol. Methods, 31: 167, 1979. Tail skin was collected from BALB/c donors, scraped free of fat and fascia and maintained in PBS on ice until transplanted. Partial thickness wounds were created on the backs of C57BL/6 recipient mice and the graft was cut to exactly fit the wound bed. Grafts were adhered to the wound bed with a small amount of wound glue (Henry Schein, Melville, N.Y.), covered with petroleum jelly embedded gauze (Sherwood Medical, St. Louis, Mo.) and bandaged for 5 days. On day 6, bandages were removed and grafts were scored visually for necrosis from day 6 to day 10.
# [2] = tested on: BALB/c cardiac allograft in C57BL/6 recipients; experiment: Neonatal cardiac transplantation; type: in vivo, C57BL/6 mice; conditions: for cardiac allograft survival on day 13 post transplantation: q.d. from day -1, visual observation and electrocardiogram
# Excerpt: Neonatal cardiac transplantation was done using a modification of methods described by Judd, K. P. & Trentin, J. J; Transplantation, 11(3): 298-302, 1971 and Fey, T. A., Krause, R. A., Hsieh, G. C., et al; J. Pharmacol. Tox. Methods, 39: 9-17, 1998 which are incorporated herein in their entirety.
# Hearts from one to two day old C57BL/6 (isograft) and BALB/c (allograft) pups were removed aseptically and stored in cold PBS until transplant. Adult C57BL/6 mice were used as transplant recipients. Each recipient mouse was transplanted with an isograft heart in the left ear and an allograft heart in the right ear. Mice were anesthetized with avertin (0.25 cc/mouse, i.p.) (2.0 G 2,2,2-Tribromoethanol) (Aldrich, Milwaukee, Wis.) plus 2.0 ml 2-methyl-2-butanol (tert-amyl alcohol) (Aldrich, Milwaukee, Wis.) and protective ointment was applied to eyes after anesthesia. An incision was made in each ear pinnae using a scalpel blade and straight fine forceps were used to create a subcutaneous pocket in the ear. The donor heart was placed into the pocket using a second pair of forceps. On days 5-16, mice were anesthetized with isofluorane (Henry Schein, Melville, N.Y.) /oxygen and the heartbeats were visually assessed using a dissecting microscope. On the final day electrical activity of the cardiac tissue was monitored by electrocardiogram. The ears were then removed and the transplanted tissue were evaluated histologically for evidence of inflammation and necrosis (rejection).
# IgG1 alloantibody = experiment: Alloantibody measurement, IgG1; type: in vivo, C57BL/6 mice; conditions: serum 21 days after cardiac allograft; dose not stated
# Procedure: as §1
# [3] = tested on: BALB/c islet grafts in diabetic C57BL/6 recipients; experiment: Islet transplantation; type: in vivo, C57BL/6 mice; conditions: 12 mg/kg oral daily
# Procedure: Chemical diabetes was induced in C57BL/6 mice using a single intraperitoneal dose of streptozocin (150 mg/kg) as previously described in Markees, T. G., Serreze, D. V., Phillips, N. E., et al; Diabetes, 48(5): 967-974, 1999. Mice with persistent hyperglycemia of >300 mg/dl were selected for experimentation as allograft recipients. Blood for plasma glucose was monitored thrice weekly (Glucose Analyzer2; Beckman Instruments, Fullerton, Calif.). Islets of Langerhans from BALB/c donors were isolated by collagenase digestion followed by density-gradient separation, as described previously Markees, T. G., Serreze, D. V., Phillips, N. E., et al; Diabetes, 48(5): 967-974, 1999. Approximately 20 islets/g body weight were transplanted into the renal subcapsular space C57BL/6 recipients. Oral treatments were provided daily beginning one day prior to islet transplant through day 28. Rejection was defined as the first of two consecutive days on which the plasma glucose was greater than or equal to 250 mg/dl. To verify the functionality of islet grafts, the graft bearing kidney was removed and placed in 10% formalin for histological analysis. Recurrence of hyperglycemia after graft removal was interpreted as evidence that the graft was the source of insulin in treated mice.
compound,measurement,setting,value
COc1cc(-c2nn(C3CCC(N4CCN(C)CC4)CC3)c3ncnc(N)c23)ccc1NC(=O)c1cc2ccccc2n1C (centres unmarked) [Example 3],IgG2a alloantibody isotype production,IgG2a alloantibody,completely inhibited
same,inhibition of DTH,C57BL/6 mice; treatment given only on days 7 and 8 (around the antigen challenge),65%
same,inhibition of footpad swelling 24 hours post challenge,"C57BL/6 mice; treatment p.o., q.d. from day -1 to day 8",77%
same,inhibition of anti-CD3 induced IL-2,anti-CD3 induced IL-2,complete inhibition
same,survival of skin allografts,[1]; 6 mg/kg p.o.,42%
same,survival of skin allografts,[1]; 12 mg/kg p.o.,90%
same,cardiac allograft survival on day 13 post transplantation,[2]; 6 mg/kg p.o.,60%
same,cardiac allograft survival on day 13 post transplantation,[2]; 12 mg/kg p.o.,100%
same,"Percent Survival Day 16 Post Transplant (cardiac allograft, electrocardiogram)","[2]; Example 3 3 mg/kg p.o., q.d.",10%
same,histological evaluation of transplanted allograft hearts,[2]; compared to vehicle treated hearts,decrease in peri- and intra-graft inflammation and necrosis
same,IgG1 alloantibody isotype production,IgG1 alloantibody,completely inhibited
same,histological evaluation of islet grafts,[3],minimal intra-graft inflammation
same,glycemic state of islet graft recipients,[3]; day -1 through day 28,normoglycemic
same,maintenance of BALB/c islet cell grafts,[3]; day -1 through day 28,28 days
